Results on six compounds are retold here after patent US20210186924A1, “COMPOSITION FOR PROMOTING URIC ACID EXCRETION, COMPOSITION FOR INHIBITING URAT1 AND COMPOSITION FOR LOWERING BLOOD URIC ACID LEVEL” (SUNTORY HOLDINGS LIMITED, priority 2018, published 2021).

Converted amounts (≈) assume the structure as drawn.

For data set [1] the following is noted: high temperature of 100° C.; cited from earlier work.
The target of the next data set is T1, human URAT1 (Homo sapiens, UniProt Q96S37).
T1 construct: expressed in transfected cells
T1 sequence (Q96S37 1-553): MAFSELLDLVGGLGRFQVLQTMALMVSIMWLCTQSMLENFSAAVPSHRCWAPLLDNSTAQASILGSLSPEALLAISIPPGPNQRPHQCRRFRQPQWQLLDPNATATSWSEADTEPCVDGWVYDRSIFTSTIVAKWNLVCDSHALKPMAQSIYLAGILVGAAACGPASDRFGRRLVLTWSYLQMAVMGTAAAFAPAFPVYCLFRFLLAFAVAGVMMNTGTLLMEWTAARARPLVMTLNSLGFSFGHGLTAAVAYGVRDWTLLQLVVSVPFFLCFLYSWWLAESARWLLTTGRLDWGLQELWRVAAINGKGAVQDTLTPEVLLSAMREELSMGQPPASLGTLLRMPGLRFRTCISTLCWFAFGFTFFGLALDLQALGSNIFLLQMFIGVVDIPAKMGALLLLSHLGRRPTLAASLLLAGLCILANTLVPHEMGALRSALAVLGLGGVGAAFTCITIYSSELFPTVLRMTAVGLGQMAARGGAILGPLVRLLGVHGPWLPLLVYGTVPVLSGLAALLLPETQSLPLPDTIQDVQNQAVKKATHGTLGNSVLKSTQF
Description: URAT1 inhibition: 14C-uric acid uptake in MDCK2 cells stably expressing human URAT1. The data set is classed as cell-based. The settings on record: for IC50: read-out: IC50 (test substance concentration at which URAT1 was inhibited 50%) (converted); for URAT1 inhibition rate (result in words, FIGS. 1 to 4): test substance 1 to 200 μg/mL, uric acid uptake vs DMSO control. How it is done: Each test substance was dissolved in dimethyl sulfoxide (DMSO) and added to HBSS to give a test substance concentration of 1, 5, 10, 15, 20, 40, 60, 80, 100, or 200 μg/mL. […] Uric acid was added to HBSS to give a concentration of 20 μM. Subsequently, the cells were washed again with HBSS, and then dissolved in a 0.1 N sodium hydroxide aqueous solution. The radiation dose of 14 C in the solution was measured by a liquid scintillation counter, and the uptake amount of uric acid into the cells was measured. A positive control was provided by adding benzbromarone at 30 μM. A test substance non-addition group as a control was provided by adding only DMSO to HBSS (DMSO concentration: 1%). The tests were performed with n=3 for the control and for the test substances at each concentration. […] The uptake amount of uric acid was determined with an average of n=3. The calculation formula of the URAT1 inhibition rate (%) is as follows. The control group is the test substance non-addition group.
Inhibition rate (%)=100×{((uptake amount of uric acid in control group)−(uptake amount of uric acid in test substance addition group))/uptake amount of uric acid in control group}

Setting [2] is: MDCK2 cells expressing human URAT1, 14C-uric acid 20 μM, 10 minutes, n=3.

As for `COc1cc(O)c(CC=C(C)C)c2c1C(=O)CC(c1ccc(O)cc1)O2` (centres unmarked) [Isoxanthohumol, isoxanthohumol], the Thermal stability result in data set [1] was “stable even at a high temperature of 100 °C”. Further, the IC50 on human URAT1 (setting [2]) was 25.1 µM. Further, on human URAT1, the “URAT1 inhibition rate (result in words, FIGS. 1 to 4)” value (from here on “URAT1 inhibition rate”) is reported as “significant increase in the inhibition rate”. In the case of `COc1cc(O)c(CC=C(C)C)c(O)c1C(=O)/C=C/c1ccc(O)cc1` [xanthohumol, reference compound], the “URAT1 inhibition rate” value at human URAT1 is “did not show a significant increase in the inhibition rate”. Take `COc1ccc([C@@H]2CC(=O)c3c(O)cc(O[C@@H]4O[C@H](CO[C@@H]5O[C@@H](C)[C@H](O)[C@@H](O)[C@H]5O)[C@@H](O)[C@H](O)[C@H]4O)cc3O2)cc1O` [Hesperidin, hesperidin]: the “IC50 (test substance concentration at which URAT1 was inhibited 50%)” value on human URAT1 (setting [2]) was found to be 16.97 µg/mL (≈ 27.8 µM). The “URAT1 inhibition rate” value on human URAT1 is “significant increase in the inhibition rate”. With `O=C1C[C@@H](c2ccc(O)cc2)Oc2cc(O)cc(O)c21` [Naringenin, naringenin], the IC50 on human URAT1 (setting [2]) was 41.9 µM. The “URAT1 inhibition rate” value at human URAT1 is reported as “significant increase in the inhibition rate”. Take `CCc1oc2ccccc2c1C(=O)c1cc(Br)c(O)c(Br)c1` [benzbromarone, reference compound]: the inhibition at 30 µM at human URAT1 (MDCK2, read-out: URAT1 inhibition rate) fell in the range of 99 to 100%. For the compound `O=C1C[C@@H](c2ccc(O)c(O)c2)Oc2cc(O)cc(O)c21` [Eriodictyol, eriodictyol], the IC50 on human URAT1 (setting [2]) was 43.5 µM. Moreover, the “URAT1 inhibition rate” value at human URAT1 is “significant increase in the inhibition rate”.
